# Measured values from ChEMBL document CHEMBL1157770, “Functionalized pyrazoles and pyrazolo[3,4-d]pyridazinones: Synthesis and evaluation of their phosphodiesterase 4 inhibitory activity” (Bioorg Med Chem, 2010).
# Assays:
# Phosphodiesterase 4 [1] = target: T1, Phosphodiesterase 4 (Homo sapiens, UniProt P27815+Q08499+Q07343+Q08493); test: Inhibition of PDE4 in human U937 cells at 1 uM after 30 mins by electrochemiluminescence based immunoassay; type: cell-based; conditions: U-937
# Phosphodiesterase 4 [2] = target: T1, Phosphodiesterase 4; test: Inhibition of PDE4 in human U937 cells after 30 mins by electrochemiluminescence based immunoassay; type: cell-based; conditions: u-937
# Phosphodiesterase 4 [3] = target: T1, Phosphodiesterase 4; test: Inhibition of PDE4 in human U937 cells at 10 uM after 30 mins by electrochemiluminescence based immunoassay; type: cell-based; conditions: U-937
# PBMC = test: Antiinflammatory activity in human PBMC assessed as inhibition of LPS-induced TNFalpha production; type: functional, cell-based
SMILES,inhibition (Phosphodiesterase 4 [1]) [%],IC50 (Phosphodiesterase 4 [2]) [nM],further results
Cc1nn(C)c(/C=C/c2ccccc2)c1C#N,1.3,,
CCn1nc(C#N)c2c(C)n(-c3ccccc3Cl)nc2c1=O,-2,,
CCn1nc(-c2ccccc2)c(C#N)c1/C=C/c1ccccc1C(=O)O,6,,
CCOC(=O)c1nn(CC)c(=O)c2nn(-c3c(Cl)cccc3Cl)c(C)c12,,237,
CCOC(=O)c1nn(CC)c(=O)c2nn(-c3ccccc3)c(C)c12,,300,
CCOC(=O)c1nn(CC2CC2)c(=O)c2nn(-c3ccccc3Cl)c(C)c12,,374,
CCn1nc(-c2nnc(C)o2)c2c(C)n(-c3cccc([N+](=O)[O-])c3)nc2c1=O,48,,
CCOC(=O)c1nn(CC)c(=O)c2nn(Cc3ccc(C#N)cc3)c(C)c12,,,inhibition (Phosphodiesterase 4 [3]): 5%
COCc1nn(CC2CC2)c(=O)c2nn(-c3ccccc3Cl)cc12,19,,
CCn1nc(C(=O)Nc2c(Cl)cncc2Cl)c2c(C)n(-c3ccccc3)nc2c1=O,3,,
CCn1nc(C)c2c(C)n(-c3cccc([N+](=O)[O-])c3)nc2c1=O,,385,
CCn1nc(C(=O)OC)c2c(C)n(-c3cccc([N+](=O)[O-])c3)nc2c1=O,,46,
CCOC(=O)Cn1nc(-c2ccccc2)c2c(C)n(-c3cccc([N+](=O)[O-])c3)nc2c1=O,1,,
CCn1nc(-c2ccccc2)c(C#N)c1CCc1ccccc1C(=O)O,11,,
CCOC(=O)c1nn(CC)c(=O)c2nn(Cc3ccc(C(=O)OC)cc3)c(C)c12,,1200,
CCn1nc(-c2ccncc2)c(C#N)c1CCc1cccc2ccccc12,2.8,,
CCn1nc(C(=O)OC(C)C)c2c(C)n(-c3cccc([N+](=O)[O-])c3)nc2c1=O,6,,
CCOC(=O)c1nn(CC)c(=O)c2nn(-c3ccccc3C)c(C)c12,,59,IC50 (PBMC): 127 nM
CCN(C)C(=O)c1nn(CC)c(=O)c2nn(-c3cccc([N+](=O)[O-])c3)c(C)c12,-2,,
CCOC(=O)c1nn(CC)c(=O)c2nn(-c3cc(C(=O)OC)ccc3C)c(C)c12,,876,
CCn1nc(COC)c2c(C)n(-c3ccccc3Cl)nc2c1=O,41,,
CCn1nc(C#N)c2c(C)n(-c3c(Cl)cccc3Cl)nc2c1=O,2,,

SMILES,inhibition (Phosphodiesterase 4 [1]) [%],IC50 (Phosphodiesterase 4 [2]) [nM],further results
CCOC(=O)c1nn(CC)c(=O)c2nn(-c3ccccc3Cl)c(C)c12,,32,
CCn1nc(-c2ccccc2)c(C#N)c1CCc1cccc2ccccc12,-3,,
CCn1nc(-c2ccncc2)c(C#N)c1/C=C/c1cccc2ccccc12,19,,
CCn1nc(C(=O)N(C)C)c2c(C)n(-c3cccc([N+](=O)[O-])c3)nc2c1=O,4,,
CCOC(=O)c1nn(CC)c(=O)c2nn(-c3cc(C(N)=O)ccc3Cl)c(C)c12,,757,
CCn1nc(CO)c2c(C)n(-c3ccccc3Cl)nc2c1=O,-4,,
CCOC(=O)Cn1nc(C)c2c(C)n(-c3cccc([N+](=O)[O-])c3)nc2c1=O,64.1,,
CCn1nc(C(=O)O)c2c(C)n(-c3cccc([N+](=O)[O-])c3)nc2c1=O,2,,
CCn1nc(-c2ccccc2)c2c(C)n(-c3cccc([N+](=O)[O-])c3)nc2c1=O,47,,
Cc1nn(C)c(CCc2ccccc2)c1C#N,2.1,,
CCCn1nc(C(=O)OCC)c2c(C)n(-c3cccc([N+](=O)[O-])c3)nc2c1=O,,72,
CCOC(=O)c1nn(CC)c(=O)c2nn(Cc3ccc([N+](=O)[O-])cc3)c(C)c12,,1140,
CCOC(=O)CCn1nc(C)c2c(C)n(-c3cccc([N+](=O)[O-])c3)nc2c1=O,4,,
CCOC(=O)CCn1nc(-c2ccccc2)c2c(C)n(-c3cccc([N+](=O)[O-])c3)nc2c1=O,1,,
CCOC(=O)c1nn(CC)c(=O)c2nn(-c3cccc([N+](=O)[O-])c3)c(C)c12,,75,IC50 (PBMC): 383 nM
CCCOC(=O)c1nn(CC)c(=O)c2nn(-c3cccc([N+](=O)[O-])c3)c(C)c12,14,,
CCn1nc(COC)c2cn(-c3ccccc3Cl)nc2c1=O,65,,
CCn1nc(C(=O)NC)c2c(C)n(-c3cccc([N+](=O)[O-])c3)nc2c1=O,14,,
COc1ccc(CCc2c(C#N)c(-c3ccccc3)nn2C)cc1OC,14,,
CCOC(=O)c1nn(CC)c(=O)c2nn(-c3cccc(CO)c3)c(C)c12,39,,
CCn1nc(-c2ccccc2)c(C#N)c1/C=C/c1cccc2ccccc12,35,,
